Holding throughout (assay type): in vivo
For test [1], the system named is Cotton Aphid (aphis gossypii, Mixed Life Stages). Put plainly: Cotton aphid, method a (cotyledon dip). As to conditions: 120 h, read-out: mortality in comparison with untreated controls. The source says:
(§1) The active compounds were formulated in 50:50 (vol:vol) acetone:water and 100 ppm Kinetica™ surfactant.
Cotton plants at the cotyledon stage (one plant per pot) were infested by placing a heavily infested leaf from the main colony on top of each cotyledon. The aphids were allowed to transfer to the host plant overnight, and the leaf used to transfer the aphids was removed. The cotyledons were dipped in the test solution and allowed to dry. After 5 days, mortality counts were made.

Test [2] concerns Green Peach Aphid (Myzus persicae, Mixed Life Stages). Put plainly: Green peach aphid, method a (leaf dip, pepper plants). To be noted: foliar, 120 h, read-out: mortality in comparison with untreated controls.
Excerpt: as §1
Pepper plants in the 2nd leaf-pair stage (variety ‘California Wonder’) were infested with approximately 40 laboratory-reared aphids by placing infested leaf sections on top of the test plants. The leaf sections were removed after 24 hr. The leaves of the intact plants were dipped into gradient solutions of the test compound and allowed to dry. Test plants were maintained under fluorescent light (24 hour photoperiod) at about 25° C. and 20-40% relative humidity. Aphid mortality on the treated plants, relative to mortality on check plants, was determined after 5 days.

The test system of test [3] is Cowpea Aphid (aphis craccivora). The test can be described thus: Cowpea aphid, sprayed potted cowpea plants. As to conditions: read-out: mortality in comparison with untreated controls. The procedure: The active compounds were formulated in 50:50 (vol:vol) acetone:water. The test solution was prepared at the day of use.
Potted cowpea plants colonized with 100-150 aphids of various stages were sprayed after the pest population had been recorded. Population reduction was assessed after 24, 72, and 120 hours.

In test [4] the test system is Vetch Aphid (Megoura viciae). Put plainly: Vetch aphid, bean leaf disks in microtiterplates. As to conditions: foliar, 144 h. Here is the method: The active compounds were formulated in 1:3 (vol:vol) DMSO:water with different concentrations of formulated compounds.
Bean leaf disks were placed into microtiterplates filled with 0.8% agar-agar and 2.5 ppm OPUS™. The leaf disks were sprayed with 2.5 μl of the test solution and 5 to 8 adult aphids were placed into the microtiterplates which were then closed and kept at 23±1° C. and 50±5% relative humidity under fluorescent light for 6 days. Mortality was assessed on the basis of vital, reproduced aphids. Aphid mortality and fecundity was then visually assessed.

On to `CN1CCn2ncc(C(=O)Nc3cccnc3)c2C1` [Compound 13, N-(pyridine-3-yl)-5-methyl-4,5,6,7-tetrahydropyrazolo-[1,5-a]pyrazine-3-carboxamide], for which the mortality at 300 ppm in test [1], in test [2] and in test [3] was at least 75% each time. In test [4], this compound gave a mortality at 2500 µg/mL of at least 90%.

The record behind these values is US8853125B2, “Pyrazole compounds for controlling invertebrate pests” (BASF SE, priority 2008, dated 2014).
